PMC9822352, “Design, Synthesis and Evaluation of New Multifunctional Benzothiazoles as Photoprotective, Antioxidant and Antiproliferative Agents” (Molecules, 2022)
Several values for one entry are separate records, joined by “and”; a condition that tells them apart may be missing. Equal values may be shown once.

Tests used:
[1] = DPPH radical scavenging test; conditions: mean ± SEM; for DPPH (% Inhibition): compound at 1 mg/mL, 30 min, 517 nm
Experimental: The DPPH assay is widely used, and the simplest and fastest in vitro method for evaluating the antioxidant power of extracts or isolated compounds; it is based on the depletion of the 2,2-diphenyl-1-picrylhydrazyl radical (DPPH˙) by an antioxidant molecule with scavenger activity. This is an extremely sensitive test that can detect the activity of active ingredients present in very low concentrations.
The procedure used was adapted from Wang et al.. Briefly, 0.750 mL of a methanolic solution of each tested compound was treated with 1.5 mL of DPPH solution (0.004%) in MeOH. Samples were stored in the dark at room temperature for 30 min, and the absorbance value was read with a spectrophotometer at 517 nm, which is the maximum peak of absorbance relative to the DPPH radical absorption spectra. The values obtained were fitted into Equation (1) and converted to inhibition percentage (%) of the radical:DPPH inhibition percentage (%) = 100 × [1 − A1/A0](1) where A1 and A0 were, respectively, the absorbance recorded with and without the sample, which are directly proportional to DPPH residual concentration in the sample and DPPH concentration in the control (0.750 of MeOH and 1.5 mL of DPPH solution). […] A linear regression was performed to calculate the sample concentration able to eliminate 50% of DPPH free radicals.

[2] = FRAP (Ferric Reducing Antioxidant Power) assay; conditions: Trolox standard, 37 °C 10 min, 593 nm; mean ± SEM
Source text: The FRAP (Ferric Reducing Antioxidant Power) test allows the measurement of the ability of antioxidants to reduce ferric ion to ferrous. This method represents one of the simplest, quickest and least expensive methods for the determination of reducing properties on oxidized species in vitro.
The FRAP test (Ferric Reducing Antioxidant Power) is based on a colorimetric reaction and evaluates the ability of a sample of reducing ferric ions to ferrous ion while complexed with TPTZ (2,4,6-trispyridil-s-triazine). The FRAP solution was prepared from 0.1 M acetate buffer (pH 3.6), 10 mmol/L of TPTZ in 40 mM HCl, and 20 mM solution of FeCl3, with a 10:1:1 ratio, as described. Then, 1.9 mL of this solution was incubated with 0.1 mL of the sample solution at 37 °C for 10 min. The absorbance was read with a UV-Vis spectrophotometer at a 593 nm wavelength, relative to the maximum peak of absorbance of Fe^2+-TPTZ complex. Trolox® was used as a standard and the results are expressed as µmolTE/g.

[3] = UV spectra in solution (MeOH-DMSO): λmax and molar extinction coefficient; type: physicochemical; conditions: for ε (molar extinction coefficient): at λmax, Lambert-Beer equation, in M-1 cm-1 (unit assumed); for λmax: solution in MeOH-DMSO, 290–400 nm
Experimental: We next investigated the protective potential against UV radiation of each compound. Specifically, in vitro tests were conducted to determine the parameters related to absorption in the UV spectrum and those fundamental to the relative evaluation of the filtering potential and thus candidature as possible UV sunscreen ingredients of the candidates under examination, including λ critical and SPF (sun protection factor). Since the SPF is correlated to the UV quantitative absorption of the substances, the wavelength of maximum absorption (λmax) and the molar extinction coefficient (ε) of the derivatives in solution (MeOH-DMSO) were evaluated (Figures S1 and S2, Supplementary Materials). The UV spectra of the compounds BZTidr1–6 and BZTcin1–5 were recorded in the UVA-UVB range (290–400 nm) to evaluate their profile and compare it to that of the PBSA, a commercial UVB filter that has a λmax of 302 nm. After this peak, the absorbance of PBSA drops, reaching almost zero in the 325 nm range, and thus not providing absorption in the UVA region.
Once the λmax of each derivative was established, the molar extinction coefficient ε was calculated by applying the Lambert-Beer equation (Table S1, Supplementary Materials): the higher this value, the greater the ability of the compound under examination to absorb UV radiation. […] The excellent values of BZTidr1, BZTidr2 and BZTidr3 are ascribed to the aforementioned hyperchromic shift. In regard to the BZTcin1–5 series, the molar extinction coefficients calculated were very high, and the best values were those of BZTcin1, BZTcin2 and BZTcin3, also attributable to the hyperchromic shift of the absorption spectra. For both series, the excellent absorption capacity of ultraviolet radiation can be traced back to the high π-type conjugation that characterizes them.

HaCat cell line = assay: Pro-apoptotic activity (Annexin V method), HaCat; type: cell-based, human; conditions: 24 h
Experimental: The Annexin V assay was conducted at two concentrations approaching IC50 values toward the selected cell lines reported in Table 3. The complete set of data is reported in Table 4, while representative data from the analysis of the corresponding Muse Analyzer plots are shown in Figure 2.
Apoptosis assays were performed with a Muse® Cell Analyzer instrument (Merck Millipore, Burlington, MA, USA) and the kit on Colo-38 and HaCat cell lines according to the manufacturer’s protocol. Cells were treated and exposed to the compounds for 24 h. This procedure is based on the detection of PS (PhosphatidylSerine) exposed on the external membrane of apoptotic cells by Annexin V. Four populations of cells can be distinguished using this assay: live, early apoptotic, late apoptotic and dead cells. The MUSE cell analyzer can discriminate “early” from “late” apoptosis since “early apoptotic cells” are Annexin V-positive and 7-AAD-negative, while “late apoptotic cells” are positive to both Annexin V and 7-AAD (7-aminoactinomycin D). The DNA intercalating molecule 7AAD (7-aminoactinomycin D) is used as an indicator of cell membrane integrity, since it binds DNA only in cells undergoing late apoptosis/death stage, when the membrane integrity is lost. Muse Annexin V and Dead Cell reagent were used to dilute the cells (1:1). After 20 min of incubation between cell samples and the kit at room temperature in the dark, the samples were analyzed using 0.01% Triton X-100 as positive control. The data were acquired and recorded using the Annexin V and Dead Cell software module (Millipore, Billerica, MA, USA).

| Structure (SMILES) | DPPH (% Inhibition) [1] | FRAP [2] | ε (molar extinction coefficient) [3] | λmax [3] | DPPH IC50 [1] | Dead (%) (HaCat cell line; 5 µM) | Early Apoptosis (%) (HaCat cell line; 5 µM) | Late Apoptosis (%) (HaCat cell line; 5 µM) | Dead (%) (HaCat cell line; 10 µM) | Early Apoptosis (%) (HaCat cell line; 10 µM) | Late Apoptosis (%) (HaCat cell line; 10 µM) | Dead (%) (HaCat cell line; 50 µM) | Early Apoptosis (%) (HaCat cell line; 50 µM) | Late Apoptosis (%) (HaCat cell line; 50 µM) | Dead (%) (HaCat cell line; 100 µM) | Early Apoptosis (%) (HaCat cell line; 100 µM) | Late Apoptosis (%) (HaCat cell line; 100 µM) |
| --- | --- | --- | --- | --- | --- | --- | --- | --- | --- | --- | --- | --- | --- | --- | --- | --- | --- |
| O=C(/C=C/c1ccc(O)cc1)Nc1nc2ccccc2s1 [BZTcin2, (E)-N-(benzo[d]thiazol-2-yl)-3-(4-hydroxyphenyl)acrylamide] | 12.37 ± 0.00% | 43.73 ± 2.83 µmolTE/g | 32240.17 | 335.6 nm |  |  |  |  |  |  |  |  |  |  |  |  |  |
| O=C(/C=C/c1ccc(O)c(O)c1)Nc1nc2ccccc2s1 [BZTcin4, (E)-N-(benzo[d]thiazol-2-yl)-3-(3,4-dihydroxyphenyl)acrylamide] | >90.00% | 4583.10 µmolTE/g and 4583.10 ± 22.68 µmolTE/g | 22387.64 | 347.7 nm | 4.86 ± 0.38 µg/mL | 0.41% | 1.83% | 3.05% | 1.96% | 1.13% | 15.56% |  |  |  |  |  |  |
| COc1ccc(/C=C/C(=O)Nc2nc3ccccc3s2)cc1O [BZTcin5, (E)-N-(benzo[d]thiazol-2-yl)-3-(3-hydroxy-4-methoxyphenyl)acrylamide] | 40.15 ± 0.18% | 2043.33 ± 12.03 µmolTE/g | 20688.20 | 342.0 nm |  |  |  |  |  |  |  | 0.19% | 2.29% | 3.73% | 0.20% | 1.84% | 5.00% |
| O=C(N/N=C/c1ccc(O)cc1)c1nc2ccccc2s1 [BZTidr2, (E)-N′-(4-hydroxybenzylidene)benzo[d]thiazole-2-carbohydrazide] | 54.80 ± 1.63% | 1160.24 ± 17.34 µmolTE/g | 28637.64 | 335.3 nm |  |  |  |  |  |  |  |  |  |  |  |  |  |
